Assay results as given in US6268395A, “Phorbol derivatives having antivirus activity” (Lead Chemical Co., Ltd., priority 1999, dated 2001).
Entries after “also recorded” stand apart in the source; their conditions may differ. Read-outs that look alike come from different tables or passages of the source.

Experiments:
[1] = Cell growth / viability of MT-4 cells (cytotoxicity); type: cell-based; conditions: human, day 5, read-out: CC0 (concentration that reduces viability of MT-4 cells; minimum cytotoxic concentration)
Protocol: (§1) In the experiments, MT-4 cells were used. The cells were incubated at 37° C. under 5% CO2 in RPMI-1640 medium (FCS, Flow laboratories, North Ryde, Australia) supplemented with 100 μg/mL of streptomycin (Meiji Seika, Tokyo, Japan), and 100 U/mL of penicillin G (Banyu Pharmaceutical, Tokyo, Japan).
(§2) The inhibitory effect of test compounds on HIV-1-induced cytopathogenicity was measured by the method of Harada, Koyanagi & Yamamoto (1985). MT-4 cells were infected for 1 hour with HIV-1 (at TCID50 of 0.001/well) and non-adsorbed virus was removed by washing. Then, the cells were resuspended in RPMI-1640 medium at a concentration of 1.5×10^5 cells/mL. A 200 μL/well of the cell suspension was cultured for 5 days in days in a 96-well culture plate containing various concentrations (12 doses, maximum 1,000 μg/mL and minimum […]) of the test compounds. Control assays were performed in the absence of test compounds with HIV-1-infected and uninfected cultures. On day 5, the IC100 of the test compound required for completely preventing HIV-1-induced CPE(IC) was determined through an optical microscope and the cell growth was examined to give the CC0 that reduces the viability of MT-4 cells.

[2] = tested on: HIV-1; test: Inhibition of HIV-1-induced cytopathic effect (CPE) in MT-4 cells; type: cell-based, HIV-1 (LAV-1) in human MT-4 cells; conditions: for IC100: Human immunodeficiency virus 1, MT4, 120 h; for r = CC0/IC100: 7200 min; for CPE inhibitory effect (in words): HIV-1; for anti-HIV-1 activity: at concentrations up to 500 μg/mL
Protocol: as §1
HIV-1 was obtained from culture supernatant of MOLT-4 cells that had been persistently infected with LAV-1.
j) Assay of cytopathic effect(CPE) of HIV-1 in MT-4 cells
as §2
A variety of phorbol esters and related compounds were tested for their ability to inhibit the replication and infectivity of HIV-1 in MT-4 cells, a human CD4-positive cell line continually infected with HTLV-1, and the results are presented in Table 3.

[3] = tested on: protein kinase C (PKC); type: biochemical, mouse; conditions: for % Activity of PKC: relative to TPA positive control; for activation of PKC (in words): concentration not given
Protocol: After addition of 0.55 nM [γ-^32 P] ATP (50×10^3 cpm/nmol), the reaction mixture was mixed and allowed to be kept at 37° C. for 30 minutes. Then the reactions were terminated by the addition of 10 μl of ice-cold stop reagent. Aliquots of 35 μL were transferred to the center of peptide binding discs. After 10 minutes, the discs were washed two times with 75 mM orthophosphoric acid. The activity of ^32 P-labeled samples was counted in 10/mL of a scintillation fluid for 1 minute. […] Blank (in the absence of PKC) and control (in the absence of TPA or tested samples) were also carried out. One unit of PKC was defined as that amount of enzyme, which incorporated 1 nmol of phosphate from ATP into its substrate, peptide, per minute under the assay conditions, described above.

[4] = MT-4 cells, 5 days, NE: Not effective, read-out: Anti-HIV-1 IC100 (complete prevention of HIV-1-induced CPE)
[5] = 10 ng/mL (standard concentration)
[6] = MT-4 cells, 5 days, NE: Not effective

| SMILES | MCC at 120 h [1] [µg/mL] | IC100 [2, 4] [µg/mL] | r = CC0/IC100 ([2]; MT-4 cells) | PKC activation (in words) [3, 5] | % Activity of PKC ([3]; 10 ng/mL) [%] | % Activity of PKC ([3]; 2.7 μg/mL) [%] | CPE inhibitory effect (in words) ([2]; MT-4 cells) | anti-HIV-1 activity [2] | PKC activation (in words) ([3]; 10 ng to 2.7 μg/mL) | IC100 ([2]; MT-4 cells, read-out: IC100 (complete inhibition of CPE)) [µg/mL] | PKC activation (in words) ([3]; 100 ng/mL) | PKC activation (in words) ([3]; 10 to 100 ng/mL) | IC100 ([2]; read-out: Anti-HIV-1 IC100 (complete prevention of HIV-1-induced CPE)) [µg/mL] | activation of PKC (in words) [3] | Anti-HIV-1 IC100 (complete prevention of HIV-1-induced CPE) [2, 6] [µg/mL] | enhancement of CPE inhibitory activity ([2]; relative to compound 1) [times] | PKC activation (in words) ([3]; high concentrations) |
| --- | --- | --- | --- | --- | --- | --- | --- | --- | --- | --- | --- | --- | --- | --- | --- | --- | --- |
| CC(=O)OCC1=C[C@H]2[C@@H]3C(C)(C)[C@]3(OC(C)=O)[C@H](OC(C)=O)[C@@H](C)[C@]2(O)[C@@H]2C=C(C)C(=O)[C@@]2(O)C1 [Compound 11, Phorbol-12,13,20-triacetate] | 125 | 62.5 | 2.00 | did not activate PKC | 0 | 15 |  |  |  |  |  |  |  |  |  |  |  |
| CCCC(=O)OCC1=C[C@H]2[C@@H]3C(C)(C)[C@]3(OC(=O)CCC)[C@H](OC(=O)CCC)[C@@H](C)[C@]2(O)[C@@H]2C=C(C)C(=O)[C@]2(O)C1 [Compound 22, 4α-Phorbol-12,13,20-tributyrate] | 62.5 |  |  |  | 0 | 0 | showed no effect | did not show anti-HIV-1 activity | no activation |  |  |  |  |  |  |  |  |
| CCCCCCCCCC(=O)O[C@@]12[C@H](OC(C)=O)[C@@H](C)[C@@]3(O)[C@@H](C=C(CO)C[C@]4(O)C(=O)C(C)=C[C@@H]34)[C@@H]1C2(C)C [Compound 6, 12-O-Acetylphorbol-13-decanoate] | 62.5 | 0.0076 | 8220 |  | 0 | 17 |  |  |  | 0.0076 | No activation of PKC was observed | no activation; also recorded: did not activate PKC |  |  |  |  |  |
| CCCCC/C=C\C/C=C\CCCCCCCC(=O)OCC1=C[C@H]2[C@@H]3C(C)(C)[C@]3(OC(C)=O)[C@H](O)[C@@H](C)[C@]2(O)[C@@H]2C=C(C)C(=O)[C@@]2(O)C1 [Compound 1, 13-O-Acetylphorbol-20-(9Z,12Z-octadecadienoate)] | 62.5 | 15.6 | 4.01 | did not activate PKC | 0 |  |  |  |  |  |  |  |  |  |  |  |  |
| CC(=O)OCC1=C[C@H]2[C@@H]3C(C)(C)[C@]3(OC(C)=O)[C@H](OC(C)=O)[C@@H](C)[C@]2(O)[C@@H]2C=C(C)[C@H](O)[C@@]2(O)C1 [Compound 15, 3-Deoxo-3β-hydroxyphorbol-12,13,20-triacetate] | 1000 |  | 2.00 |  | 0 | 26 | loss of CPE inhibitory effect |  |  |  |  |  | 500 |  |  |  |  |
| CO[C@]12CC(COC(C)=O)=C[C@H]3[C@@H]4C(C)(C)[C@]4(OC(C)=O)[C@H](OC(C)=O)[C@@H](C)[C@]3(O)[C@@H]1C=C(C)C2=O [Compound 16, 4-O-Methylphorbol-12,13,20-triacetate] | 125 | 31.3 | 3.99 |  | 0 | 0 | increased in the CPE inhibitory effect |  | no activation |  |  |  |  | no activation of PKC |  |  |  |
| C/C=C(\C)C(=O)O[C@@H]1[C@@H](C)[C@@]2(O)[C@@H](C=C(CO)C[C@]3(O)C(=O)C(C)=C[C@@H]23)[C@@H]2C(C)(C)[C@]12OC(=O)C(C)CC (stereo partly shown) [Compound 5, 12-O-Tigioylphorbol-13-(2-methylbutyrate)] | 62.5 | 31.3 | 2.00 |  | 10 | 40 | weak inhibitory effects against CPE |  |  |  |  |  |  | weak activation of PKC |  |  |  |
| C=C(C)C1C(OC(C)=O)=CC(C)C2(O)C1C=C(COC(=O)CCCCCCC/C=C\C/C=C\CCCCC)CC1(O)C(=O)C(C)=CC12 (stereo not shown) [Compound 18, 13-O-Acetylcrotophorbolone-enol-20-linoleate] | 125 | 7.81 | 16.0 |  | 24 | 24 |  |  |  |  |  |  |  |  | 7.8 | 2 |  |
| CC1=C[C@H]2[C@@]3(O)[C@H](C)[C@@H](O)[C@]4(O)[C@H]([C@@H]3C=C(CO)C[C@@]2(O)C1=O)C4(C)C [Compound 19, 4α-Phorbol] | 500 |  |  |  | 1 | 5 | did not show CPE inhibitory effect; also recorded: showed no effect | did not show anti-HIV-1 activity |  |  |  |  |  | weak activators of PKC |  |  |  |
| CCCCCCCCCC(=O)O[C@@H]1[C@@H](C)[C@@]2(O)[C@@H](C=C(CO)C[C@]3(O)C(=O)C(C)=C[C@@H]23)[C@@H]2C(C)(C)[C@]12OC(=O)C(C)CC (stereo partly shown) [Compound 4, 12-O-Decanoylphorbol-13-(2-methylbutyrate)] | 31.3 | 7.81 | 4.01 |  | 0 | 0 |  |  | no activation |  |  |  |  | did not show any activation of PKC | 7.8 |  |  |
| CC1=C[C@@H]2[C@@H](CC(CO)=C[C@H]3[C@@H]4C(C)(C)[C@]4(O)[C@H](O)[C@@H](C)[C@]23O)C1=O [Compound 20, 4-Deoxy-4α-phorbol] | 500 |  |  |  | 0 | 25 | did not show CPE inhibitory effect; also recorded: showed no effect | did not show anti-HIV-1 activity |  |  |  |  |  | weak activators of PKC |  |  |  |
| CCCCCCCCCCCC(=O)O[C@@]12[C@H](OC(=O)C(C)CC)[C@@H](C)[C@@]3(O)[C@@H](C=C(CO)C[C@]4(O)C(=O)C(C)=C[C@@H]34)[C@@H]1C2(C)C (stereo partly shown) [Compound 7, 12-O-(2-Methylbutyroyl)phorbol-13-dodecanoate] | 62.5 | 15.6 | 4.01 |  | 16 | 30 |  |  |  |  |  |  |  |  |  |  |  |
| CC(=O)OCC1=C[C@H]2[C@@H]3C(C)(C)[C@]3(OC(C)=O)[C@H](OC(C)=O)[C@@H](C)[C@]2(O)[C@@H]2C=C(C)C(=O)[C@]2(OC(C)=O)C1 [Compound 23, 4α-Phorbol-4,12,13,20-tetraacetate] |  |  |  | did not activate PKC | 0 |  | showed no effect |  |  |  |  |  |  |  |  |  | enhanced activation of PKC |
| C/C=C(\C)C(=O)O[C@@]12[C@H](O)[C@@H](C)[C@@]3(O)[C@@H](C=C(COC(=O)CCCCCCC/C=C\C/C=C\CCCCC)C[C@]4(O)C(=O)C(C)=C[C@@H]34)[C@@H]1C2(C)C [Compound 2, 13-O-Tigloylphorobol-20-(9Z,12Z-octadecadienoate)] | 62.5 | 7.81 | 8.00 |  | 14 | 32 |  |  |  |  |  |  |  |  | 7.8 |  |  |
| CC(=O)OCC1=C[C@H]2[C@@H]3C(C)(C)[C@]3(OC(C)=O)[C@H](OC(C)=O)[C@@H](C)[C@]2(O)[C@@H]2C=C(C)C(=O)[C@]2(O)C1 [Compound 21, 4α-Phorbol-12,13,20-triacetate] | 500 | 250 | 2.00 |  | 0 | 39 |  |  |  |  |  |  |  |  |  |  | enhanced activation of PKC |
| CC(=O)O[C@@]12[C@H](O)[C@@H](C)[C@@]3(O)[C@@H](C=C(CO)C[C@]4(O)C(=O)C(C)=C[C@@H]34)[C@@H]1C2(C)C [Compound 10, 13-O-Acetylphorbol] | > 1000 | 125 | > 8.00 | did not activate PKC | 0 | 14 |  |  |  |  |  |  |  |  |  |  |  |
